Measured values reported in ChEMBL document CHEMBL1201862, “PubChem BioAssay data set” (2004).
Calls of active or inactive are those of the source.

Assays:
[1] = target: Melanin-concentrating hormone receptor 1 (Homo sapiens, UniProt Q99705); assay: Fluorescence-based counterscreen for antagonists of the G-protein coupled receptor 7 (GPR7): cell-based high throughput dose response assay to identify antagonists of the melanin-concentrating hormone receptor 1 (MCHR1).; type: functional
Mucolipin-3 = target: T1, Mucolipin-3 (Homo sapiens, UniProt Q8TDD5); assay: Dose response cell-based high-throughput screening assay for agonists of the transient receptor potential channel ML3 (TRPML3). [Related pubchem assays: 1526, 1424, 1448 ]; type: functional
T1 sequence (Q8TDD5 whole entry): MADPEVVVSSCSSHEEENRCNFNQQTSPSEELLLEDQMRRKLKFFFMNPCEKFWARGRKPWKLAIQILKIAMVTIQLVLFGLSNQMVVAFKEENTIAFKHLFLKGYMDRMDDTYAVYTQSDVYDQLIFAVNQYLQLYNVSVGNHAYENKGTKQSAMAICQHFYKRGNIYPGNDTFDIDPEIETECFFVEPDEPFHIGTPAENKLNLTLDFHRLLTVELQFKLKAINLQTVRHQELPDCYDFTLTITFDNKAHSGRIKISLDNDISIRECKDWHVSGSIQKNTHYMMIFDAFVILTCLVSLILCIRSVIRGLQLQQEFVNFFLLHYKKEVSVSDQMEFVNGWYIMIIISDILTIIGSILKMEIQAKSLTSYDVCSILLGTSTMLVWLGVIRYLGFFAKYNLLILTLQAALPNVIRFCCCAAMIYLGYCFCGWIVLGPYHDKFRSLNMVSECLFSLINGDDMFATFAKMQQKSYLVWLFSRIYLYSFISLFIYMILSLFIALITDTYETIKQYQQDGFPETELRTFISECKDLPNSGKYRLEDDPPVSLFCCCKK

Ion channel NompC = Ion channel NompC (Danio rerio, UniProt Q7T1G6); assay: Fluorescence counterscreen assay for TRPML3 agonists: dose response cell-based high-throughput screening assay to identify agonists of the transient receptor potential channel N1 (TRPN1). [Related pubchem assays: 1526, 1424, 1448 ]; type: functional
Chain of Ion channel NompC (Q7T1G6 whole entry): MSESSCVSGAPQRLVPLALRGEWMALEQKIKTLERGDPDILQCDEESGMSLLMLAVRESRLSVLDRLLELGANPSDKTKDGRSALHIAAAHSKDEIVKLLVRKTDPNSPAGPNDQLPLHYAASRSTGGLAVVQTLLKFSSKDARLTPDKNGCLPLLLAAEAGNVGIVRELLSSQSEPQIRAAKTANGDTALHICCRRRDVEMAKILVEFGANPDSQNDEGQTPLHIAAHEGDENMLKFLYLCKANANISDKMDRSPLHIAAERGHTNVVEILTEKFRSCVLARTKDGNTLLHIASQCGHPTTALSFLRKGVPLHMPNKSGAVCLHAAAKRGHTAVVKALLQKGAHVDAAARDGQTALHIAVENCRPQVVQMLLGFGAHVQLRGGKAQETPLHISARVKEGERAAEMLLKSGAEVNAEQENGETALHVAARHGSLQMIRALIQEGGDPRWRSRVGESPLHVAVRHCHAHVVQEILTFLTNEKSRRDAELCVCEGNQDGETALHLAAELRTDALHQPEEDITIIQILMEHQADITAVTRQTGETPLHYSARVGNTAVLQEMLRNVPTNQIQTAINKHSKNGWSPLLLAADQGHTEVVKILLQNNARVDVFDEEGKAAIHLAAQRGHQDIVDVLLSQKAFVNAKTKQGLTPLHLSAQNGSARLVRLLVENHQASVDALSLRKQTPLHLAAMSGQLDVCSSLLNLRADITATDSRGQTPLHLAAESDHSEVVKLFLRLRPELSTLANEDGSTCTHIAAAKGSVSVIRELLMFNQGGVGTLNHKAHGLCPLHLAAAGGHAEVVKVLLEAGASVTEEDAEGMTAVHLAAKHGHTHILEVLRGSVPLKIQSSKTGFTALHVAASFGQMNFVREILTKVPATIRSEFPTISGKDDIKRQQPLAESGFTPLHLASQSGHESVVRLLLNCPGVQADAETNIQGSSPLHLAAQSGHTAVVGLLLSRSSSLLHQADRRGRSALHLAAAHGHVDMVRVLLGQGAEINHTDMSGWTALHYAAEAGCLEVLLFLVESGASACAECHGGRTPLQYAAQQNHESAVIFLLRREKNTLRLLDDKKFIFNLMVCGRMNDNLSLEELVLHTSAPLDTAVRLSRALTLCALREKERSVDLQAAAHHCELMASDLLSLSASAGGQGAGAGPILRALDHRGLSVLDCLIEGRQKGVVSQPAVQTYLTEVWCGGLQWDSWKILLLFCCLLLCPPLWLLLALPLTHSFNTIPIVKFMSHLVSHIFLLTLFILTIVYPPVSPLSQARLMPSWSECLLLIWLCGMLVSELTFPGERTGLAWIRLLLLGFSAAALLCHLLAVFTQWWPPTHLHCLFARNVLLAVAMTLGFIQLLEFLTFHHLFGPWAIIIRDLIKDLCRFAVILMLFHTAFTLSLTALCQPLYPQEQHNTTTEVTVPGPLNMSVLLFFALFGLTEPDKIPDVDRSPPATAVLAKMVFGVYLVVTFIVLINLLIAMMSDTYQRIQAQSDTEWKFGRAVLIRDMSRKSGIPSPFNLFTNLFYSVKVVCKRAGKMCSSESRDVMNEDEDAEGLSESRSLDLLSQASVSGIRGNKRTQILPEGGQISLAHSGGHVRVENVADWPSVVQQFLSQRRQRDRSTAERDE

[2] = target: Voltage-dependent T-type calcium channel subunit alpha-1H (Homo sapiens, UniProt O95180); type: functional;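 note: channel activity triggered by adding a high calcium stimulation buffer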
[3] = target: Eukaryotic translation initiation factor 4H (Homo sapiens, UniProt Q15056); assay: eIF4H binding inhibition – biochemical, uHTS, fluorescence polarization, translation initiation inhibitor project, primary screen (AID 2012)
[4] = target: Polyadenylate-binding protein 1 (Homo sapiens, UniProt P11940); assay: blockers of PABP interaction with poly(A) – biochemical, fluorescence polarization, […] (AID 2014)
Chain of Polyadenylate-binding protein 1 (P11940 whole entry): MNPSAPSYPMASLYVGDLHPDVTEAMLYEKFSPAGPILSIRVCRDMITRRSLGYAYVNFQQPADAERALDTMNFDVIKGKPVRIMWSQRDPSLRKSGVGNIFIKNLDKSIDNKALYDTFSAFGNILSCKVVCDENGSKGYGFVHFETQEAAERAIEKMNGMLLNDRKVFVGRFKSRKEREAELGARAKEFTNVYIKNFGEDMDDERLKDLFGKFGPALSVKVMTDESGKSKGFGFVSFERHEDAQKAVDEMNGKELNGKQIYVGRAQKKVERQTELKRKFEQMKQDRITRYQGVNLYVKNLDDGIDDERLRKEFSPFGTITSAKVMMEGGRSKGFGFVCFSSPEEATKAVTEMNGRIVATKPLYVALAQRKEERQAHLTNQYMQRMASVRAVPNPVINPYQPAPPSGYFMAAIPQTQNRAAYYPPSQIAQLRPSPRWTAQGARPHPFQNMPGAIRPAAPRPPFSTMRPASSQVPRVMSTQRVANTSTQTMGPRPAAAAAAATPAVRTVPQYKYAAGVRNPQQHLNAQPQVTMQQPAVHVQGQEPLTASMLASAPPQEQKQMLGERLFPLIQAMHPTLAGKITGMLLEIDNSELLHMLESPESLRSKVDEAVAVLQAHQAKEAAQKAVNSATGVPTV

[5] = target: T2, Mannose-6-phosphate isomerase (Homo sapiens, UniProt P34949); assay: MPI inhibition at elevated mannose 6-phosphate – biochemical, fluorescence intensity, high mannose 6-phosphate, primary screen (AID 1220)
T2 sequence (P34949 whole entry): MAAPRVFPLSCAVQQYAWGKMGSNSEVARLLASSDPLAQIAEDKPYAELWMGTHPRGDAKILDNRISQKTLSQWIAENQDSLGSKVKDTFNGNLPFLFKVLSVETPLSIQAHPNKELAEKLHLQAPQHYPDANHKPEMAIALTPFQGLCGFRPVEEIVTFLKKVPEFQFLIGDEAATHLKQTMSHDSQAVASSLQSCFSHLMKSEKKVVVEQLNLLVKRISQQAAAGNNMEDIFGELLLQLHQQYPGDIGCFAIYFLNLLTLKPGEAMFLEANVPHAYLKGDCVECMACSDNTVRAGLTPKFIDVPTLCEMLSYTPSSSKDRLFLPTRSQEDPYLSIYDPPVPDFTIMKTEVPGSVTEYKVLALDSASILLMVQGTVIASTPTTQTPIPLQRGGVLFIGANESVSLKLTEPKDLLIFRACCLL

[6] = A cytotoxicity screen of small molecule inhibitors of the PhoP region in Salmonella typhi identified in the primary screen. [Related pubchem assays: 1850, 1864, 1985 ]; type: functional
[7] = target: T3, Carboxy-terminal domain RNA polymerase II polypeptide A small phosphatase 1 (Homo sapiens, UniProt Q9GZU7); assay: CTDSP1 inhibitors, concentration-response, biochemical, absorbance readout, ultra-high-throughput screen actives (AID 540297); type: functional
T3 sequence (Q9GZU7 whole entry): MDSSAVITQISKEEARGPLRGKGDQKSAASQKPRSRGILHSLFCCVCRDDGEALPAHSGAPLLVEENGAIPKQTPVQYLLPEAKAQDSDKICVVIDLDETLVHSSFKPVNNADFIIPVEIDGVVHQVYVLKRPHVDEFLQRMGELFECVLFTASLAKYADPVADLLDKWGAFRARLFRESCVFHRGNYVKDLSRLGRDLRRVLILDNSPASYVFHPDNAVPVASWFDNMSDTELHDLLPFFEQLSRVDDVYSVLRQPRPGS

Aminopeptidase N = Aminopeptidase N (Plasmodium falciparum FcB1/Columbia, UniProt O96935); assay: malaria alanyl aminopeptidase activity blockers – biochemical, fluorogenic H-Leu-NHMec substrate, 1536-well (AID 1445); parameters: species or system Plasmodium falciparum 3D7, 3D7
Chain of Aminopeptidase N (O96935 whole entry): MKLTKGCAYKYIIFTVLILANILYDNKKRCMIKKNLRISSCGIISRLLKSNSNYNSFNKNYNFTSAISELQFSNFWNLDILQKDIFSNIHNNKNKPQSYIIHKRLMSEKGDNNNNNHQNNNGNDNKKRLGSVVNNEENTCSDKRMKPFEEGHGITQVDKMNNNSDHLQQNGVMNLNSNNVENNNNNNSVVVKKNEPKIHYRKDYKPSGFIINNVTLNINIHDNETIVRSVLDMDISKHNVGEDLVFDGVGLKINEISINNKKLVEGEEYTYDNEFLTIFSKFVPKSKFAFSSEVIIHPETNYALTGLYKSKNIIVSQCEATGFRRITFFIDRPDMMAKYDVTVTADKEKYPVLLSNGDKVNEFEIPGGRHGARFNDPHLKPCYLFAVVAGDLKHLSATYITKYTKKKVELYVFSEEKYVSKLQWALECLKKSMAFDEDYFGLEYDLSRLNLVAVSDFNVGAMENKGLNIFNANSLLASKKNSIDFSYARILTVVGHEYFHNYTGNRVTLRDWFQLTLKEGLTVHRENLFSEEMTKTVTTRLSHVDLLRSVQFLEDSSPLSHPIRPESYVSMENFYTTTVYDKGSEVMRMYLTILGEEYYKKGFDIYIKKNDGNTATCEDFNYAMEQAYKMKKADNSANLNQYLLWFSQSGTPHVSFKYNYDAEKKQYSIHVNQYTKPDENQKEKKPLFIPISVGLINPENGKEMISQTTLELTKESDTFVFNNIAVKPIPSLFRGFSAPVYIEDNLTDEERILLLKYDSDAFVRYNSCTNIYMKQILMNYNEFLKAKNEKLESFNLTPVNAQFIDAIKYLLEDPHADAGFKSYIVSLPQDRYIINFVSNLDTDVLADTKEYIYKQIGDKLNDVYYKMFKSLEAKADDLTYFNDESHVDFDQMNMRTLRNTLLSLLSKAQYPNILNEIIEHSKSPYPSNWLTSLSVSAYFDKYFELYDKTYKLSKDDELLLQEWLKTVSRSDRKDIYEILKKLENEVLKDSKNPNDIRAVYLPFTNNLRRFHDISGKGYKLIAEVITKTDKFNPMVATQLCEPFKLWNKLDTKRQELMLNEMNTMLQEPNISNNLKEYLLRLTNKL

Nonstructural protein 1 = Nonstructural protein 1 (Influenza A virus, UniProt Q194T2); type: functional, Influenza A virus (A/California/07/2009(H1N1))
Chain of Nonstructural protein 1 (Q194T2 whole entry): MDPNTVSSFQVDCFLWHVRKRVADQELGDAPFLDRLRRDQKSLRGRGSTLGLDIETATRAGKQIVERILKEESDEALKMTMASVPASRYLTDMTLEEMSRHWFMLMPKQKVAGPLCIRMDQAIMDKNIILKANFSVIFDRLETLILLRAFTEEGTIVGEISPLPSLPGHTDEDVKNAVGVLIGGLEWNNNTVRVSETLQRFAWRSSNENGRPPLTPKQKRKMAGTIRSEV

[8] = target: T4, Alkaline phosphatase, tissue-nonspecific isozyme (Homo sapiens, UniProt P05186)
T4 sequence (P05186 whole entry): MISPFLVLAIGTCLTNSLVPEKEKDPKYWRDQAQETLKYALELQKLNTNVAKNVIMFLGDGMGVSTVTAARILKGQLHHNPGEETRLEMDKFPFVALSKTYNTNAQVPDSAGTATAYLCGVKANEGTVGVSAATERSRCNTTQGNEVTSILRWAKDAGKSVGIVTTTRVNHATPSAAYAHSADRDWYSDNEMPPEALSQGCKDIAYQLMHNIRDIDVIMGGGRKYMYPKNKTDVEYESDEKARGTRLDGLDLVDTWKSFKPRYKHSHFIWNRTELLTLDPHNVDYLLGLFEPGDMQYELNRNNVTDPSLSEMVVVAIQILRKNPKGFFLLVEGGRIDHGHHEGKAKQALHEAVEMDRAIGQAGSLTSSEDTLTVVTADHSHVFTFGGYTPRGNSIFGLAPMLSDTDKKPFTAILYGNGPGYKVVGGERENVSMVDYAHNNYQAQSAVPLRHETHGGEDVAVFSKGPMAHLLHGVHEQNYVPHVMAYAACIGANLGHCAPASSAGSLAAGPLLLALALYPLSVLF

Escherichia coli = assay: microbe, parasite or virus in culture

Chain of Melanin-concentrating hormone receptor 1 (Q99705 whole entry): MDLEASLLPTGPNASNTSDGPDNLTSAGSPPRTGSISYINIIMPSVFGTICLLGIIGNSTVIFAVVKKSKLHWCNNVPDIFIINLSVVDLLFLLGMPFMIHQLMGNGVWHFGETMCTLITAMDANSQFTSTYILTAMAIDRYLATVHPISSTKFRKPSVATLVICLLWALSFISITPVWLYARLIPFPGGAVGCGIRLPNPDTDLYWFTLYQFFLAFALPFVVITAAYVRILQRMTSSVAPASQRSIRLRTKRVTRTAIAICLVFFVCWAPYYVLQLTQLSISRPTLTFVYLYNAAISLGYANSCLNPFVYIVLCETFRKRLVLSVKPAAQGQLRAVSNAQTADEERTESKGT

For CN1CCN(c2ccccc2NC(=O)Cc2ccc(Cl)cc2)CC1, the IC50 [1] was 36 µM (not active).
In the case of Cc1ccc(S(=O)(=O)c2c(C)cc(C)nc2Oc2cccc(C(F)(F)F)c2)cc1, the EC50 (Mucolipin-3) was 5.23 µM (active), the EC50 (Ion channel NompC) was > 29.9 µM (not active) and the EC50 [2] was 7.06 µM (active).
With CCN1CCc2c(C#N)c(NCc3ccccc3)nc(NCCO)c2C1 the IC50 [3] was > 100 µM (inactive), the IC50 [4] was > 100 µM (inactive) and the IC50 [5] was > 50 µM (not active).
In the case of COc1ccc(S(=O)(=O)N2CCCCCC2)cc1N(C)S(=O)(=O)c1ccc(C)cc1, the EC50 (Mucolipin-3) was 6.7 µM (active) and the EC50 (Ion channel NompC) was > 29.9 µM (not active).
In the case of CCn1c(SCC(=O)N/N=C/C=C\c2ccco2)nc2ccccc21, the IC50 [3] was 12.3 µM (active) and the IC50 [4] was 68.8 µM (active).
For O=C(/C=C(\O)c1ccccc1)C(=O)NNC(=O)c1ccccc1, the EC50 [6] was > 50 µM (active).
With O=C1Nn2c(nc3c(c2=O)CCC3)/C1=N/Nc1cccc(Cl)c1 the IC50 [7] was 6.15 µM (active), the IC50 (Aminopeptidase N) was 83.9 µM (active) and the IC50 (Nonstructural protein 1) was > 100 µM (active).
With COCCn1c(N/N=C(C)/C=C/c2ccccc2)nc2c1c(=O)[nH]c(=O)n2C the EC50 [8] was > 100 µM (not active).
In the case of CCn1cc(C(=O)O)c(=O)c2cc(F)c(N3CCNCC3)cc21 [NORFLOXACIN], the EC50 [6] was > 50 µM (active) and the AC50 (Escherichia coli) was 1.33 µM (active).
